Laboratory results as given in ChEMBL document CHEMBL5579824, “Novel Hsp90-Targeting PROTACs: Enhanced synergy with cisplatin in combination therapy of cervical cancer” (Eur J Med Chem, 2024).
Calls of active or inactive are those of the source. The calls are words filed in the database; no cut-off is given here.

What was measured:
SiHa = experiment: Antiproliferative activity against human SiHa cells assessed as reduction in cell viability incubated for 72 hrs by CCK-8 assay; format: functional, cell-based
[1] = target: T1, Protein cereblon/Heat shock protein HSP 90-alpha/Heat shock protein HSP 90-beta (Homo sapiens) (UniProt P07900+P08238+Q96SW2); experiment: Protac activity at CRBN/Hsp90 in human SiHa cells assessed as induction of Hsp90 degradation at 1 uM incubated for 10 hrs by Western blot analysis; format: cell-based
[2] = target: T1, Protein cereblon/Heat shock protein HSP 90-alpha/Heat shock protein HSP 90-beta (Homo sapiens); experiment: Protac activity at CRBN/Hsp90 in human SiHa cells assessed as induction of Hsp90 degradation at 1 uM incubated for 2 hrs by Western blot analysis; format: cell-based
[3] = target: T2, von Hippel-Lindau disease tumor suppressor/Heat shock protein HSP 90-alpha/Heat shock protein HSP 90-beta (Homo sapiens) (UniProt P07900+P08238+P40337); experiment: Protac activity at VHL/Hsp90 in human SiHa cells assessed as induction of Hsp90 degradation at 1 uM incubated for 10 hrs by Western blot analysis; format: cell-based
T2 sequence (P08238 whole entry, looked up, other chains not shown): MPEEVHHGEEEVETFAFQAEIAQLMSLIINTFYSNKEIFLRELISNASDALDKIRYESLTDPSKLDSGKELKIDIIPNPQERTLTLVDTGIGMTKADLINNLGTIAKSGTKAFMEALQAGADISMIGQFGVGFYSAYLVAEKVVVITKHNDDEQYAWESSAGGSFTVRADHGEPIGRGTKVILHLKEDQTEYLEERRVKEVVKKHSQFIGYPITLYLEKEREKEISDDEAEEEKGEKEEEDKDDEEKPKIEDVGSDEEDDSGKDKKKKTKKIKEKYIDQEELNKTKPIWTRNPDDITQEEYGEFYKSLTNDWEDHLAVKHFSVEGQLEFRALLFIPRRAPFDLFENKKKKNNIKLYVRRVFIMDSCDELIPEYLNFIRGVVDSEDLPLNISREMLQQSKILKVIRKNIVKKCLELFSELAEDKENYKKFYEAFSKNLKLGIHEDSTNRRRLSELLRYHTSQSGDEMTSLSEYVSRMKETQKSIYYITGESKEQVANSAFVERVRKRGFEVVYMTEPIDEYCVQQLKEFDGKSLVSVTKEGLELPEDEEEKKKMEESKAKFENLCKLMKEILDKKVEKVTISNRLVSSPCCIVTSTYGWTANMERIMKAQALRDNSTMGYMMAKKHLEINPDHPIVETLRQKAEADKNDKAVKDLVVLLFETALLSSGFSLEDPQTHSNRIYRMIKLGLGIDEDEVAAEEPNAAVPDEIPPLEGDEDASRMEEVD
T2 sequence (P40337 whole entry, looked up, other chains not shown): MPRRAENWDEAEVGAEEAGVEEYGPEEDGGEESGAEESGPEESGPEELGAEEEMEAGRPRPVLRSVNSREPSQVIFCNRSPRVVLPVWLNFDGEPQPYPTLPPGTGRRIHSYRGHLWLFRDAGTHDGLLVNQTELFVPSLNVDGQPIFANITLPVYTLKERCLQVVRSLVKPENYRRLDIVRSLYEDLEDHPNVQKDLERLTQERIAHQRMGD

[4] = target: T2, von Hippel-Lindau disease tumor suppressor/Heat shock protein HSP 90-alpha/Heat shock protein HSP 90-beta (Homo sapiens); experiment: Protac activity at VHL/Hsp90 in human SiHa cells assessed as induction of Hsp90 degradation (causing hook effect) at > 0.1 uM incubated for 10 hrs by Western blot analysis; format: cell-based
[5] = target: T1, Protein cereblon/Heat shock protein HSP 90-alpha/Heat shock protein HSP 90-beta (Homo sapiens); experiment: Protac activity at CRBN/Hsp90 in human SiHa cells assessed as induction of Hsp90 degradation (causing hook effect) at > 0.1 uM incubated for 10 hrs by Western blot analysis; format: cell-based

| SMILES | Activity [1] | IC50 (SiHa) [nM] | further results |
| --- | --- | --- | --- |
| CC1(C)CC(=O)c2c(C(F)(F)F)nn(-c3ccc(C(N)=O)c(N[C@H]4CC[C@H](OC(=O)CN)CC4)c3)c2C1 [SNX 5422] | – | 14 | – |
| CC1(C)CC(=O)c2c(C(F)(F)F)nn(-c3ccc(C(N)=O)c(N[C@H]4CC[C@H](OC(=O)CNC(=O)CCCCNc5cccc6c5CN(C5CCC(=O)NC5=O)C6=O)CC4)c3)c2C1 (some centres not stated) | – | 310 | – |
| CN1C(=O)CCC(N2Cc3c(NCCCCCCCC(=O)NCC(=O)O[C@H]4CC[C@H](Nc5cc(-n6nc(C(F)(F)F)c7c6CC(C)(C)CC7=O)ccc5C(N)=O)CC4)cccc3C2=O)C1=O (some centres not stated) | – | – | Activity [2]: inactive |
| Cc1ncsc1-c1ccc([C@H](C)NC(=O)[C@@H]2C[C@@H](O)CN2C(=O)[C@@H](NCCCCCC(=O)NCC(=O)O[C@H]2CC[C@H](Nc3cc(-n4nc(C(F)(F)F)c5c4CC(C)(C)CC5=O)ccc3C(N)=O)CC2)C(C)(C)C)cc1 | – | 660 | – |
| Cc1ncsc1-c1ccc([C@H](C)NC(=O)[C@@H]2C[C@@H](O)CN2C(=O)[C@@H](NCCCCCCCCCC(=O)NCC(=O)O[C@H]2CC[C@H](Nc3cc(-n4nc(C(F)(F)F)c5c4CC(C)(C)CC5=O)ccc3C(N)=O)CC2)C(C)(C)C)cc1 | – | 230 | Activity [3]: Active |
| Cc1ncsc1-c1ccc([C@H](C)NC(=O)[C@@H]2C[C@@H](O)CN2C(=O)[C@@H](NCCOCCOCC(=O)NCC(=O)O[C@H]2CC[C@H](Nc3cc(-n4nc(C(F)(F)F)c5c4CC(C)(C)CC5=O)ccc3C(N)=O)CC2)C(C)(C)C)cc1 | – | 30 | Activity [4]: inactive; Activity [3]: inactive |
| CC1(C)CC(=O)c2c(C(F)(F)F)nn(-c3ccc(C(N)=O)c(NCCCNC(=O)CCCCCNc4cccc5c4CN(C4CCC(=O)NC4=O)C5=O)c3)c2C1 (configuration not stated) | inactive | 9610 | – |
| Cc1ncsc1-c1ccc([C@H](C)NC(=O)[C@@H]2C[C@@H](O)CN2C(=O)[C@@H](NCCCCCCCC(=O)NCC(=O)O[C@H]2CC[C@H](Nc3cc(-n4nc(C(F)(F)F)c5c4CC(C)(C)CC5=O)ccc3C(N)=O)CC2)C(C)(C)C)cc1 | – | 170 | Activity [3]: Active |
| CC1(C)CC(=O)c2c(C(F)(F)F)nn(-c3ccc(C(N)=O)c(N[C@H]4CC[C@H](OC(=O)CNC(=O)COCCOCCNc5cccc6c5C(=O)N(C5CCC(=O)NC5=O)C6=O)CC4)c3)c2C1 (some centres not stated) | inactive | 40 | Activity [5]: inactive |
| CC1(C)CC(=O)c2c(C(F)(F)F)nn(-c3ccc(C(N)=O)c(N[C@H]4CC[C@H](OC(=O)CNC(=O)CCCCCCCCCNc5cccc6c5CN(C5CCC(=O)NC5=O)C6=O)CC4)c3)c2C1 (some centres not stated) | – | 140 | – |
| CC1(C)CC(=O)c2c(C(F)(F)F)nn(-c3ccc(C(N)=O)c(NCCCNC(=O)COCCOCCNc4cccc5c4CN(C4CCC(=O)NC4=O)C5=O)c3)c2C1 (configuration not stated) | inactive | 7300 | – |
| CC1(C)CC(=O)c2c(C(F)(F)F)nn(-c3ccc(C(N)=O)c(N[C@H]4CC[C@H](OC(=O)CNC(=O)CCCNc5cccc6c5CN(C5CCC(=O)NC5=O)C6=O)CC4)c3)c2C1 (some centres not stated) | Active | 70 | – |

Now from value to molecule, other results behind:

| Activity [1] | SMILES | IC50 (SiHa) [nM] | further results |
| --- | --- | --- | --- |
| inactive | CC1(C)CC(=O)c2c(C(F)(F)F)nn(-c3ccc(C(N)=O)c(N[C@H]4CC[C@H](NC(=O)CCCCCCCCCNc5cccc6c5CN(C5CCC(=O)NC5=O)C6=O)CC4)c3)c2C1 (some centres not stated) | 190 | – |
| inactive | CC1(C)CC(=O)c2c(C(F)(F)F)nn(-c3ccc(C(N)=O)c(NCCCNC(=O)CCCCCCCCCCNc4cccc5c4CN(C4CCC(=O)NC4=O)C5=O)c3)c2C1 (configuration not stated) | 560 | – |
| Active | CC1(C)CC(=O)c2c(C(F)(F)F)nn(-c3ccc(C(N)=O)c(N[C@H]4CC[C@H](OC(=O)CNC(=O)CCCCCNc5cccc6c5CN(C5CCC(=O)NC5=O)C6=O)CC4)c3)c2C1 (some centres not stated) | 460 | – |
| Active | CC1(C)CC(=O)c2c(C(F)(F)F)nn(-c3ccc(C(N)=O)c(N[C@H]4CC[C@H](OC(=O)CNC(=O)CCCCCCNc5cccc6c5CN(C5CCC(=O)NC5=O)C6=O)CC4)c3)c2C1 (some centres not stated) | 240 | – |
| inactive | CC1(C)CC(=O)c2c(C(F)(F)F)nn(-c3ccc(C(N)=O)c(NCCCNC(=O)CCCCCCCNc4cccc5c4CN(C4CCC(=O)NC4=O)C5=O)c3)c2C1 (configuration not stated) | 5520 | – |
| inactive | CC1(C)CC(=O)c2c(C(F)(F)F)nn(-c3ccc(C(N)=O)c(N[C@H]4CC[C@H](NCCCCCCCCCC(=O)Nc5cccc6c5CN(C5CCC(=O)NC5=O)C6=O)CC4)c3)c2C1 (some centres not stated) | 5270 | – |
| inactive | CC1(C)CC(=O)c2c(C(F)(F)F)nn(-c3ccc(C(N)=O)c(NCCCNC(=O)CCCCCCCCCNc4cccc5c4CN(C4CCC(=O)NC4=O)C5=O)c3)c2C1 (configuration not stated) | 430 | – |
| inactive | CC1(C)CC(=O)c2c(C(F)(F)F)nn(-c3ccc(C(N)=O)c(N[C@H]4CC[C@H](NC(=O)CNC(=O)CCCCCCCCCNc5cccc6c5CN(C5CCC(=O)NC5=O)C6=O)CC4)c3)c2C1 (some centres not stated) | 750 | – |
